We go through 1 compound from PMC8800119 (The Journal of Biological Chemistry, 2022).

The target of this assay is T1, glutaminase C (GAC) (Homo sapiens, UniProt O94925, Y466W).
T1 sequence (O94925 72-550 Y466W): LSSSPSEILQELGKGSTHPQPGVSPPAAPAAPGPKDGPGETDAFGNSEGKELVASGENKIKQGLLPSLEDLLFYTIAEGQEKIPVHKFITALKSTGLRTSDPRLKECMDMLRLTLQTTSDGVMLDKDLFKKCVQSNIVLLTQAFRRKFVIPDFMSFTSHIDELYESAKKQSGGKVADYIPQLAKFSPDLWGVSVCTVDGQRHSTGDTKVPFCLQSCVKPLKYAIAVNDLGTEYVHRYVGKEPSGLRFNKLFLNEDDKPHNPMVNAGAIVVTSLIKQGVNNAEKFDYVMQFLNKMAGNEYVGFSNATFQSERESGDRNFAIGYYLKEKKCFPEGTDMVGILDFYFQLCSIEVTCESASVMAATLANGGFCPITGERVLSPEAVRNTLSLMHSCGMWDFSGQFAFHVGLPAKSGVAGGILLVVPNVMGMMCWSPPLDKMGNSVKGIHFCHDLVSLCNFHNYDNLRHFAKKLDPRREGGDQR
Put plainly: Trp466 fluorescence titration of phosphate at […] glutamine. Type of assay: binding.

Turning to `O=P(O)(O)O` [inorganic phosphate], the dissociation constant (Kd) was 8.5 ± 1.9 mM.

What is called Kd is the constant that tells how readily two partners part at equilibrium. Lower therefore signals tighter binding.
